We go through one molecule from publication PMC7824787, “Design, Synthesis and In Vitro Investigation of Novel Basic Celastrol Carboxamides as Bio-Inspired Leishmanicidal Agents Endowed with Inhibitory Activity against Leishmania Hsp90” (Biomolecules, 2021).

For test [1], the system named is L. infantum promastigotes. In words: Antileishmanial activity on L. infantum promastigotes (MTT). Format: cell-based. As to conditions: Leishmania infantum, 72 h, 23 °C, MTT, read-out: Leishmania Promastigotes IC50, L. infantum. Here is the method:
Promastigote stage of L. infantum (MHOM/TN/80/IPT1, kindly provided by Dr. M. Gramiccia and Dr. T. Di Muccio, ISS, Roma) and L. tropica (MHOM/SY/2012/ISS3130) were cultured in RPMI 1640 medium (EuroClone) supplemented with 15% heat-inactivated fetal calf serum (EuroClone, Milan, Italy), 20 mM HEPES, and 2 mM L-glutamine at 23 °C. The MTT (3-[4.5-dimethylthiazol-2-yl]-2.5-diphenyltetrazolium bromide) method was used to estimate the 50% inhibitory concentration (IC50), with some modifications. Compounds were dissolved in DMSO and then diluted with medium to achieve the required concentrations. Test compounds were placed in 96 wells round bottom microplates and seven serial dilutions made. Amphotericin B was used as the reference antileishmanial drug. Parasites were diluted in complete medium to 5 × 10^6 parasites/mL and 100 μL of the suspension was seeded into the plates and incubated at 23 °C for 72 h. Then 20 μL of MTT solution (5 mg/mL) was added into each well, after 3 h the plates were centrifuged, the supernatants discarded and the resulting pellets dissolved in 100 μL of lysing buffer consisting of 20% (w/v) of a solution of SDS (Sigma), 40% of N,N-dimethylformamide (Merck) in H2O. The absorbance of the obtained solutions was measured at a wavelength of 550 nm with a reference at 650 nm with a microplate spectrophotometer (Synergy 4-Biotek, Milan, Italy) and analyzed with the Gen5® software for data processing.
The results are expressed as IC50, the dose of compound that is necessary to inhibit cell growth by 50%; each IC50 value is the mean ± standard deviation of at least three separate experiments performed in duplicate.

Test [2] concerns the target LbHsp90 (Leishmania braziliensis, UniProt A4HL70). As to the kind of experiment: LbHsp90 ATPase kinetics (NADH-coupled enzymatic cascade). Format: biochemical. Here is the method:
The reaction was initiated by the addition of ATP (1 mM) and absorbance changes at 346 nm were monitored for 30 min at 30 °C.
Native LbHsp90 kinetics was measured as described but in the absence of DMSO. Two control experiments were run as follows: • (1) Efficiency of the enzymatic cascade by the used compounds: HEPES buffer (20 mM, pH 7.5) containing KCl (100 mM), MgCl2 (1 mM), ADP (1 mM), NADH (0.18 mM), L-lactate dehydrogenase (4 U mL^−1), phosphoenolpyruvate (1 mM), pyruvate kinase (2.5 U mL^−1); • (2) Interference of the tested compound(s) with the enzymatic cascade: HEPES buffer (20 mM, pH 7.5) containing KCl (100 mM), MgCl2 (1 mM), ADP (1 mM), NADH (0.18 mM), L-lactate dehydrogenase (4 U mL^−1), phosphoenolpyruvate (1 mM), pyruvate kinase (2.5 U mL^−1) and 50 μM compound.
Accordingly, an in vitro assay developed for the evaluation of non-competitive allosteric modulators, which exploits ATPase kinetics data, was used. Briefly, the decrease in absorbance deriving from the continuous oxidation of NADH to NAD^+ produced by a multi-enzymatic cascade triggered by LbHp90-catalyzed ATP hydrolysis is followed spectrophotometrically over the course of 15 min (for details see Appendix B). All the experiments were normalized using the native ATPase activity of LbHsp90 measured in the presence of DMSO, the co-solvent selected for compounds solubilization.
Figure A1 Enzymatic cascade reactions to spectroscopically evaluate L. Hsp90 ATPase kinetics. The ADP produced by ATP hydrolysis during the chaperone cycle reacts with PEP (phosphoenolpyruvate) to form pyruvate in a reaction catalyzed by the enzyme pyruvate kinase (PK), whereby ATP is regenerated. Pyruvate then continues the cascade process and is reduced to lactic acid by action of lactate dehydrogenase (LDH), whereby NADH is oxidized to NAD^+.
LbHsp90 inhibition (%) = (1 − k/knative) * 100 k = ΔAbs/min = extrapolated apparent kinetic constant (Abs/min)

In test [3] the test system is L. infantum promastigotes. In words: Morphological differentiation of Leishmania promastigotes. Format: cell-based, Leishmania infantum. As to conditions: 50 ng/mL, 23 °C, 48 h (Figure 6). Here is the method: L. infantum promastigotes were diluted in complete medium to 4 × 10^7 parasites/mL and 250 µL of the suspension were seeded into the 24 wells plates and incubated at 23 °C in the presence of geldanamycin, CE or compound 2 at the final concentration of 50 ng/mL. Cultures without drugs incubated at 23 °C or at 37 °C were used as negative and positive control, respectively. After 24 or 48 h of incubation, parasite morphology was evaluated by optical microscopy at 100× (Eclipse Ti Series, Nikon, Minato, Tokyo, Japan) on Giemsa stained smears (a mixture of eosin, methylene blue and Azure-B diluted 1:10). The percent of round promastigotes in treated and non-treated cells was determined. Images were taken at the same magnification by using a digital camera (Nikon Digital Sight). About 500 promastigotes were counted in 4 random fields.
The compounds were incubated (23 °C, physiological pH) with L. infantum promastigotes at a sub-IC50 concentration of 50 ng/mL. […] After 24 h and 48 h the presence of round, amastigote-like cells, was monitored (Figure 6). A negative and positive control experiment (NC and PC, Figure 6a,b) were also conducted growing the promastigotes at 23 °C and 37 °C, respectively.

Read-outs that look alike come from different tables or passages of the source.

Sequence of LbHsp90 (A4HL70 entry or part of it): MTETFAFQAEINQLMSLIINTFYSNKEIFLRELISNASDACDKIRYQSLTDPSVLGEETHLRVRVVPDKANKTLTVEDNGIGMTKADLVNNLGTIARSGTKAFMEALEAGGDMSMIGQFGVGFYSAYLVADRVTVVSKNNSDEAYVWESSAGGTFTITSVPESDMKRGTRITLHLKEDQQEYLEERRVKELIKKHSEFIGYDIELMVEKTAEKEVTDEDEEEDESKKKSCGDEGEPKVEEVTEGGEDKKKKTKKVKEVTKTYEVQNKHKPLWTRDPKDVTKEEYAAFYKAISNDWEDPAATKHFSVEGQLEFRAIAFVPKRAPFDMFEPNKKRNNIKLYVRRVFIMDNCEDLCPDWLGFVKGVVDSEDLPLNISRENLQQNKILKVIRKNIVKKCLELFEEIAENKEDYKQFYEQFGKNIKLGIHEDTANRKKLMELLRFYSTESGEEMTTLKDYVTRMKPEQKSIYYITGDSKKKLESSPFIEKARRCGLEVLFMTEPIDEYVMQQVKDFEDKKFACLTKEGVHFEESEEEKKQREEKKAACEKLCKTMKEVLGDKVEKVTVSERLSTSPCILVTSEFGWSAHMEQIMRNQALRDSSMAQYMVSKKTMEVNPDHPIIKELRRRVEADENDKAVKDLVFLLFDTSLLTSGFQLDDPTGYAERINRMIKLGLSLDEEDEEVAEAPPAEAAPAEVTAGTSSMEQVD

For the molecule `COC1=C2C[C@@H](C)C[C@H](OC)[C@H](O)[C@@H](C)/C=C(\C)[C@H](OC(N)=O)[C@@H](OC)/C=C\C=C(/C)C(=O)NC(=CC1=O)C2=O` [GA, geldanamycin], in test [1], the IC50 stood at 140 ± 40 nM. The molecule also registered an inhibition at 10 µM in test [2] (GA dose-response, 10 μM) of 0.1 ± 0.02%. In test [2] (GA dose-response, 15 μM), this molecule returned an inhibition at 15 µM of 0.2 ± 0.05%. For the same molecule, the inhibition at 20 µM in test [2] (GA dose-response, 20 μM) came out at 0.3 ± 0.08%. In addition, the inhibition at 50 µM was 0.7 ± 0.04% in test [2] (GA dose-response, 50 μM, read-out: LbHsp90 Inhibition (%)) and under 0.05% in test [2] (read-out: LbHsp90 Inhibition (%), compound 50 μM, 3.5 μM LbHsp90, 1 mM ATP). This molecule also came in with an inhibition at 100 µM in test [2] (GA dose-response, 100 μM) of 6.5 ± 0.9%. In test [2] (GA dose-response, 200 μM), this molecule showed an inhibition at 200 µM of 30.7 ± 1.2%. The same molecule returned an inhibition at 400 µM in test [2] (GA dose-response, 400 μM) of 52.3 ± 0.8%. For the same molecule, at 600 µM the inhibition in test [2] (GA dose-response, 600 μM) was 76.9 ± 3%. In test [2] (GA dose-response, 800 μM), the inhibition at 800 µM turned out to be 90.5 ± 2.5%. The same molecule gave an inhibition at 1000 µM in test [2] (GA dose-response, 1000 μM (1 mM), 1 mM ATP) of 99 ± 0.9%. Further, in test [2] (GA dose-response, 1200 μM), the inhibition at 1200 µM is over 99%. The “round amastigote-like cells (morphological differentiation)” value in test [3] is listed as about 40%.
